pEC50, pIC50: −log10 of the molar value.

Test [1] concerns the target T1, Protein arginine N-methyltransferase 3 (Homo sapiens, UniProt O60678).
Description: Inhibition of PRMT3 (unknown origin) using C-terminally biotinylated histone H4 as substrate in presence of [3H]S-adenosylmethionine by scintillation proximity assay
The target in test [2] is T1, Protein arginine N-methyltransferase 3. The experiment in a line: Binding affinity to beta galactosidase fused human PRMT3 (211 to 531 residues) expressed in human A549 cells after 6 hrs by InCELL hunter assay. The class given is cell-based.
The target is the same in test [3]. The experiment in a line: Binding affinity to beta galactosidase fused human PRMT3 (211 to 531 residues) expressed in human HEK293 cells after 6 hrs by InCELL hunter assay. The class given is cell-based.
The target is the same in test [4]. Kind of test: Inhibition of FLAG-tagged wild type human PRMT3 expressed in HEK293 cells assessed as decrease in exogenous H4R3 dimethylation level using GFP-tagged histone H4 as substrate after 24 hrs by Western blot analysis. The class given is cell-based.

T1 sequence (O60678 whole entry, the tested form may be a part): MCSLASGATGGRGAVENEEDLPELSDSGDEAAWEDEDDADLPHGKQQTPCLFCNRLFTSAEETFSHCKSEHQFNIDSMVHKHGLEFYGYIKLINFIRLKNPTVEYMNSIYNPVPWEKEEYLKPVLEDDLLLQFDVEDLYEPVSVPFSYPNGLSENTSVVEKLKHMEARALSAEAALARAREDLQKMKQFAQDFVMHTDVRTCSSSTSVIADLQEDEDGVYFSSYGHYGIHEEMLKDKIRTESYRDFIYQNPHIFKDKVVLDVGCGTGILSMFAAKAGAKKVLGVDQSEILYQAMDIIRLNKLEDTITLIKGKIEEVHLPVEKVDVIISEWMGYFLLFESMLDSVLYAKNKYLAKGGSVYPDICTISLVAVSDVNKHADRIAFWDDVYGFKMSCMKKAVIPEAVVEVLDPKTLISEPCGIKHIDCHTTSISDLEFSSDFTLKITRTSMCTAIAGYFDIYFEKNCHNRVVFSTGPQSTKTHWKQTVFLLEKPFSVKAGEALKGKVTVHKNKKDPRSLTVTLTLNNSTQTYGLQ

Take `O=C(CNC(=O)Nc1ccc2cnccc2c1)NC1CC1`: the pIC50 in test [1] was 6.80.

`O=C(NCC(=O)N1CCCCC1)Nc1ccc2cnccc2c1`: the pIC50 in test [1] was 7.08.

In test [1], `O=C(CNC(=O)Nc1ccc2cnccc2c1)NC1CCCCC1` had a pIC50 of 6.32.

On to `O=C(NCC(=O)N1CCCC1)Nc1cc2ccncc2cc1F`, for which the negative logarithm of the EC50 (pEC50) in test [2] is 5.80; in test [3], 5.57. Also, in test [1], the negative logarithm of the IC50 (pIC50) is 7.72.

On to `CN1CCN(C(=O)CNC(=O)Nc2ccc3cnccc3c2)CC1`, for which the negative logarithm of the IC50 (pIC50) in test [1] was less than 5.72.

In the case of `O=C(NCCC1CC1)Nc1ccc2cnccc2c1`, the negative logarithm of the IC50 (pIC50) in test [1] is less than 5.10.

Consider `O=C(NCC(=O)N1CC(F)(F)C(F)(F)C1)Nc1ccc2cnccc2c1`, for which the negative logarithm of the EC50 (pEC50) in test [2] was 5.57; in test [3] it was 5.51. Besides, the negative-log IC50 (pIC50) was 6.62 in test [4] and 7.62 in test [1].

Take `O=C(NCCc1ccccc1)Nc1ccc2cnccc2c1`: the pIC50 in test [1] was 6.08.

Take `O=C(NCC(=O)N1C2CCCC1CC2)Nc1ccc2cnccc2c1`: the pIC50 in test [1] is 7.66.

On to `CON(C)C(=O)CNC(=O)Nc1ccc2cnccc2c1`, for which the pIC50 in test [1] was 6.32.

The compound `O=C(NCC(=O)N1C2CCC1CC2)Nc1ccc2cnccc2c1` showed a pIC50 in test [1] of 7.34.

The values are drawn from ChEMBL document CHEMBL4024780, “Discovery of Potent and Selective Allosteric Inhibitors of Protein Arginine Methyltransferase 3 (PRMT3)” (J Med Chem, 2018).
